# From US20250032476A1, “ALPHA-2A ADRENERGIC RECEPTOR MODULATORS AND USES THEREOF” (The Regents of the University of California, priority 2021, published 2025)
# Read-outs that look alike come from different tables or passages of the source.
# Tests used:
# [1] = biological target: T1, ALPHA-2A ADRENERGIC RECEPTOR (Homo sapiens (Human), UniProt P08913); test: Gi recruitment (G protein); format: cell-based; conditions: for Emax: read-out: G protein Emax (%); for functional classification (agonist / weak agonist): Table 6, result in words
# T1 sequence (P08913 whole entry): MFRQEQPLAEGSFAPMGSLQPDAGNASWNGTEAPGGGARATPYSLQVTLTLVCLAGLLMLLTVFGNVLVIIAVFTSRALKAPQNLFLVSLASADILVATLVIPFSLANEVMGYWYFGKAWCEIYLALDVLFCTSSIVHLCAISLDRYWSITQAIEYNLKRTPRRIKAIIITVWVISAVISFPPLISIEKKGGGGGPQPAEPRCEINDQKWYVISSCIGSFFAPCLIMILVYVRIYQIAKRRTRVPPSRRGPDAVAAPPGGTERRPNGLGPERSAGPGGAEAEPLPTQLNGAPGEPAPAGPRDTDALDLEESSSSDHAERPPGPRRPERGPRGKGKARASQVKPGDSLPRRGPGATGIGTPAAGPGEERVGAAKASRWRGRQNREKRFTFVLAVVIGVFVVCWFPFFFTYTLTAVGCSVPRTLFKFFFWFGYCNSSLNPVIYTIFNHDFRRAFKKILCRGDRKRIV
# [2] = biological target: T1, ALPHA-2A ADRENERGIC RECEPTOR; test: Arrestin recruitment; format: cell-based
# [3] = Pharmacokinetics in mice (plasma, brain, CSF); format: in vivo; conditions: for AUC / Cmax: mouse, plasma
# Protocol: Pharmacokinetics. Pharmacokinetic experiments were performed by Bienta (Enamine Biology Services) in accordance with Enamine pharmacokinetic study protocols and Institutional Animal Care and Use Guidelines (protocol number 1-2/2020). […] In each compound study, nine time points (5, 15, 30, 60, 120, 240, 360, 480 and 1440 min) were collected, each of the time point treatment group included 3 animals. There was also a control group of one animal. In the ‘9087, ‘7075, ‘4622 studies, male C57BL/6N mice were used, for PS75 CD-1 mice, and for ‘2998 male Balb/cAnN mice. For all compound studies the animals were randomly assigned to the treatment groups before the pharmacokinetic study; all animals were fasted for 4 h before dosing. For injections, ‘9087 was dissolved in Captisol—water (40%:60%, w/v), ‘4622 was dissolved in a 20% Kolliphor HS—physiological saline solution, and ‘7075, PS75, and ‘2998 were dissolved in a 20% 2-HPBCD—aqueous solution. The batches of working formulations were prepared 10 minutes prior to the in vivo study.
# (§1) Mice were injected i.p. with 2,2,2-tribromoethanol at 150 mg/kg prior to drawing CSF and blood. CSF was collected under a stereomicroscope from cisterna magna using 1 mL syringes. Blood collection was performed from the orbital sinus in microtainers containing K3EDTA. Animals were sacrificed by cervical dislocation after the blood samples collection. Blood samples were centrifuged 10 min at 3000 rpm. Brain samples (right lobe) were weighed and transferred into 1.5 ml tubes. All samples were immediately processed, flash-frozen and stored at −70° C. until subsequent analysis.
# Plasma samples (40 μL) were mixed with 200 μL of internal standard (IS) solution. After mixing by pipetting and centrifuging for 4 min at 6000 rpm, 4 μL of each supernatant was injected into the LC-MS/MS system. Solutions of internal standards were used to quantify compounds in the plasma samples. […] After this, the samples were centrifuged for 4 min at 14,000 rpm, and supernatant was injected into LC-MS/MS system. CSF samples (2 μL) were mixed with 40 μL of an internal stock solution. After mixing by pipetting and centrifuging for 4 min at 6,000 rpm, 5 μL of each supernatant was injected into LC-MS/MS system.
# (§2) Analyses of plasma, brain and CSF samples were conducted at Enamine/Bienta. The concentrations of compounds in plasma and brain samples were determined using high performance liquid chromatography/tandem mass spectrometry (HPLC-MS/MS). Data acquisition and system control was performed using Analyst 1.5.2 software (AB Sciex, Canada). […] Pharmacokinetic data analysis was performed using noncompartmental, bolus injection or extravascular input analysis models in WinNonlin 5.2 (PharSight).
# as §1, with “mL” for “ml”
# as §2
# Additional pharmacokinetic experiments were performed by Sai Life Sciences (Hyderabad, India) in accordance with the Sai Study Protocol SAIDMPK/PK-22-04-0340. […] Testing was done in C57BL/6 mice.
# human α2AAR = human α2AAR (Homo sapiens (Human), UniProt P08913); test: Gαi G protein activation, BRET biosensor assay in HEK293T cells; conditions: HEK-293T, read-out: Gαi Emax
# Chain of human α2AAR (P08913 whole entry): as above
# Protocol: Bioluminescense resonance energy transfer. G protein mediated activation of human α2AAR and D2long was monitored with Gαi1-RLucII (71, 72) together with Gβ1 and Gγ1-GFP10. Arrestin recruitment was performed by enhanced bystander BRET using CAAX-rGFP and β-arrestin-2-RLucII as biosensors (all biosensors are provided from M. Bouvier, Université de Montréal, Canada) (71, 73) in the presence of GRK2 as described (66, 74). In brief, HEK293T cells were transfected with a total amount of 3.3 μg DNA per 10^6 cells using linear polyethyleneimine (PEI, Polysciences, 3:1 PEI:DNA ratio) and transferred into 96-well half-area plates (Greiner, Frickenhausen, Germany) at a density of 10,000 cells per well and incubated for 48 hrs. Medium was exchanged with PBS (Hank's balanced salt solution) and cells were stimulated with ligands at 37° C. for 10 min for Gαi stimulation or arrestin recruitment, respectively.
# [4] = Gi recruitment, Tables 7-9, read-out: G protein EC50
# [5] = C57BL/6N ('9087), C57BL/6 (PS75), iv, I.V. 10 mg/kg
# [6] = C57BL/6N ('9087), C57BL/6 (PS75), po, P.O. 30 mg/kg
# [7] = Gi recruitment, Table 6, read-out: EC50
molecule,measurement,setting,value
"3-Methyl-N^1-(pyridin-2-yl)benzene-1,4-diamine [Compound 5822]",EC50,[1]; [4],1100 nM
"4-(1,2,5,6-tetrahydropyridin-3-yl)-1H-indole [PS-NN04]",Arrestin Emax (%),[2]; Tables 7-9,<10%
same,G protein Emax (%),"[1]; Gi recruitment, Tables 7-9",63%
same,EC50,[1]; [4],130 nM
"4-Methyl-5-(1,2,5,6-tetrahydropyridin-3-yl)-1H-pyrrolo[2,3-b]pyridine [Compound 9661]",EC50,[1]; [4],680 nM
N#Cc1cc2[nH]ncc2cc1-c1ccc(N)nc1 [BSC2998-E02],Arrestin effect at 100 μM,[2],25% at 100 μM
same,EC50,[1]; [4],2900 nM
same,Emax,"[1]; Gi recruitment, Tables 7-9",14%
"CN(c1cccc(Cl)c1)c1cc(N)ccn1 [Compound 2029, N^2-(3-Chlorophenyl)-N^2-methylpyridine-2,4-diamine]",EC50,[1]; [4],1400 nM
"C1=C(c2cccc3ccccc23)CNCC1 [Compound 3461, 5-(Naphthalen-1-yl)-1,2,3,6-tetrahydropyridine]",EC50,[1]; [4],450 nM
"C1=C(c2cccc3c2CCC3)CNCC1 [Compound 3827, 5-(2,3-dihydro-1H-inden-4-yl)-1,2,3,6-tetrahydropyridine]",EC50,[1]; [4],390 nM
"Cc1ccc(Nc2ccccn2)cc1C [Compound 4472, N-(3,4-Dimethylphenyl)pyridin-2-amine]",EC50,[1]; [4],3300 nM
"Nc1ccnc(Oc2ccc(F)cc2)c1 [Compound 4783, 2-(4-Fluorophenoxy)pyridin-4-amine]",EC50,[1]; [4],580 nM
"Cc1c(-c2cccnc2N)ccc2[nH]ncc12 [Compound 5193, 3-(4-Methyl-1H-indazol-5-yl)pyridin-2-amine]",EC50,[1]; [4],3100 nM
"Cc1cc(-c2ccc3[nH]ncc3c2C)cnc1N [Compound 5649, 3-Methyl-5-(4-methyl-1H-indazol-5-yl)pyridin-2-amine]",EC50,[1]; [4],1000 nM
"CN(c1ccc(N)c(F)c1)c1ccccn1 [Compound 6254, 3-Fluoro-N^1-methyl-N^1-(pyridin-2-yl)benzene-1,4-diamine]",EC50,[1]; [4],5400 nM
"Nc1ccc(Nc2ccccn2)cc1Cl [Compound 7502, 3-Chloro-N^1-(pyridin-2-yl)benzene-1,4-diamine]",EC50,[1]; [4],460 nM
"Nc1ncccc1-c1ccc2scnc2c1 [Compound 8723, 3-(Benzo[d]thiazol-5-yl)pyridin-2-amine]",EC50,[1]; [4],1300 nM
"c1ccc2c(Nc3ccncc3)cncc2c1 [Compound 9087, N-(pyridin-4-yl)isoquinolin-4-amine]",AUC,[3]; [5],1750 ng·h/mL
same,Cmax,[3]; [5],2020 ng/mL
same,AUC,[3]; [6],8430 ng·h/mL
same,Cmax,[3]; [6],2720 ng/mL
same,AUC Brain,[3]; I.P. 10 mg/kg,439000 ng·min/mL
same,AUC CSF,[3]; I.P. 10 mg/kg,154000 ng·min/mL
same,Cmax Brain,[3]; I.P. 10 mg/kg,5960 ng/mL
same,Cmax CSF,[3]; I.P. 10 mg/kg,447 ng/mL
same,Cmax Brain,[3]; I.V. 10 mg/kg,6590 ng/mL
same,Cmax Brain,[3]; P.O. 30 mg/kg,14000 ng/mL
same,AUC,"[3]; ip, I.P. 10 mg/kg",1830 ng·h/mL
same,Cmax,"[3]; ip, I.P. 10 mg/kg",1440 ng/mL
"Nc1ncccc1-c1ccc2[nH]ncc2c1 [Compound 9241, 3-(1H-Indazol-5-yl)pyridin-2-amine]",EC50,[1]; [4],2100 nM
C=C(c1ccccc1)c1cccnc1N [Compound 9280],EC50,[1]; [4],2600 nM
"CN(c1cccc(O)c1)c1cc(N)ccn1 [Compound 9448, 3-((4-Aminopyridin-2-yl)(methyl)amino)phenol]",EC50,[1]; [4],2900 nM
"Cc1cc(Nc2ccncc2)c2ccccc2n1 [Compound 9506, 2-methyl-N-(pyridin-4-yl)quinolin-4-amine]",functional classification (agonist / weak agonist),[1]; Gi recruitment,weak agonist
same,EC50,[1]; [7],950 nM
"Cc1coc2ccc(C3=CCCNC3)cc12 [Compound 9677, 5-(3-Methylbenzofuran-5-yl)-1,2,3,6-tetrahydropyridine]",EC50,[1]; [4],170 nM
C=C(c1ccccc1)c1c(F)ccnc1N [Compound 9689],EC50,[1]; [4],7300 nM
"C1=C(c2ccc3c(c2)CCO3)CNCC1 [Compound 9700, 5-(2,3-Dihydrobenzofuran-5-yl)-1,2,3,6-tetrahydropyridine]",EC50,[1]; [4],800 nM
"Cc1cccc(N(C)c2ccc(N)nc2)c1 [Compound 9878, N^5-methyl-N^5-(m-tolyl)pyridine-2,5-diamine]",EC50,[1]; [4],1100 nM
"NC[C@H](O)c1ccc(O)c(O)c1 [NorEpi, norepinephrine, reference compound]",Emax,human α2AAR,100%
COc1ccc2c(Nc3ccncc3)cccc2c1 [PS73],EC50,[1]; [7],50 nM
Cc1cc2c(Nc3ccncc3)cccc2cn1 [PS74],functional classification (agonist / weak agonist),[1]; Gi recruitment,agonist
same,EC50,[1]; [7],450 nM
Fc1ccc2cncc(Nc3ccncc3)c2c1 [PS76],functional classification (agonist / weak agonist),[1]; Gi recruitment,agonist
same,EC50,[1]; [7],89 nM
CN1CCc2c(Nc3ccncc3)cccc2C1=O [PS77],functional classification (agonist / weak agonist),[1]; Gi recruitment,agonist
same,EC50,[1]; [7],1200 nM
CN1C(=O)CCc2c(Nc3ccncc3)cccc21 [PS78],functional classification (agonist / weak agonist),[1]; Gi recruitment,agonist
same,EC50,[1]; [7],43 nM
COc1cccc2c(Nc3ccncc3)cncc12 [PS79],functional classification (agonist / weak agonist),[1]; Gi recruitment,agonist
same,EC50,[1]; [7],100 nM
Fc1cccc2c(Nc3ccncc3)cncc12 [PS82],functional classification (agonist / weak agonist),[1]; Gi recruitment,agonist
same,EC50,[1]; [7],230 nM
Oc1ccc2c(Nc3ccncc3)cccc2c1 [PS85],functional classification (agonist / weak agonist),[1]; Gi recruitment,agonist
same,EC50,[1]; [7],87 nM
N#Cc1ccc(C2=CCCNC2)c2cccnc12 [PS-NN05],Emax,[2]; Tables 7-9,< 10%
same,Emax,"[1]; Gi recruitment, Tables 7-9",< 5%
C1=C(c2cccc3ncncc23)CNCC1 [PS-NN06],Emax,[2]; Tables 7-9,< 10%
same,Emax,"[1]; Gi recruitment, Tables 7-9",< 10%
"Nc1ccc(-c2cc([N+](=O)[O-])c3[nH]ncc3c2)cn1 [TP70, 5-(7-Nitro-1H-indazol-5-yl)pyridin-2-amine]",Emax,[2]; Tables 7-9,< 10%
same,EC50,[1]; [4],3200 nM
same,Emax,"[1]; Gi recruitment, Tables 7-9",-27%
"Nc1ccc(-c2cc(Cl)c3[nH]ncc3c2)cn1 [TP73, 5-(7-Chloro-1H-indazol-5-yl)pyridin-2-amine]",Emax,[2]; Tables 7-9,< 10%
same,EC50,[1]; [4],8700 nM
same,Emax,"[1]; Gi recruitment, Tables 7-9",27%
"Nc1ccc(-c2cc3cn[nH]c3cc2Cl)cn1 [TP74, 5-(6-Chloro-1H-indazol-5-yl)pyridin-2-amine]",Emax,[2]; Tables 7-9,< 10%
same,EC50,[1]; [4],200 nM
same,Emax,"[1]; Gi recruitment, Tables 7-9",64%
"Nc1ccc(-c2cc3cn[nH]c3cc2F)cn1 [TP75, 5-(6-Fluoro-1H-indazol-5-yl)pyridin-2-amine]",Emax,[2]; Tables 7-9,< 10%
same,EC50,[1]; [4],89 nM
same,Emax,"[1]; Gi recruitment, Tables 7-9",18%
"Nc1ccc(-c2cc3cn[nH]c3cc2[N+](=O)[O-])cn1 [TP78, 5-(6-Nitro-1H-indazol-5-yl)pyridin-2-amine]",Emax,[2]; Tables 7-9,< 10%
same,EC50,[1]; [4],910 nM
same,Emax,"[1]; Gi recruitment, Tables 7-9",51%
"COc1cc2[nH]ncc2cc1-c1ccc(N)nc1 [TP79, 5-(6-Methoxy-1H-indazol-5-yl)pyridin-2-amine]",Emax,[2]; Tables 7-9,< 10%
same,Emax,"[1]; Gi recruitment, Tables 7-9",< 6%
O=C1CCc2ccc(C3=CCCNC3)cc21 [TP81],Emax,[2]; Tables 7-9,< 10%
same,EC50,[1]; [4],3000 nM
same,Emax,"[1]; Gi recruitment, Tables 7-9",79%
"Nc1ccc(-c2ccc3[nH]ncc3c2F)cn1 [TP84, 5-(4-Fluoro-1H-indazol-5-yl)pyridin-2-amine]",Emax,[2]; Tables 7-9,< 10%
same,EC50,[1]; [4],1100 nM
same,Emax,"[1]; Gi recruitment, Tables 7-9",49%
"Nc1ccc(-c2ccc3[nH]ncc3c2Cl)cn1 [TP85, 5-(4-Chloro-1H-indazol-5-yl)pyridin-2-amine]",Arrestin effect at 100 μM,[2],34% at 100 μM
same,EC50,[1]; [4],220 nM
same,Emax,"[1]; Gi recruitment, Tables 7-9",81%
"Nc1ccc(-c2cc(C(F)(F)F)c3[nH]ncc3c2)cn1 [TP87, 5-(7-(Trifluoromethyl)-1H-indazol-5-yl)pyridin-2-amine]",Emax,[2]; Tables 7-9,< 10%
same,G protein effect at 100 μM,[1]; at 100 μM,27% at 100 μM
O=C1CCc2cc(C3=CCCNC3)ccc21 [TP90],Emax,[2]; Tables 7-9,< 5%
same,Emax,"[1]; Gi recruitment, Tables 7-9",< 5%
